# Laboratory results reported in a melting point compilation (Tetko et al.; mined from patent text by program, amines drawn as free bases though some values may be those of a salt).
row,melting point,Compound
1,> 300 °C,Cc1n[nH]c2c1c(=O)n(-c1ccccc1)c1ncccc21
2,231 °C,CCCOc1ccccc1-c1nc2nc(OC)ncc2c(=O)[nH]1
3,68 to 69.5 °C,CCCc1c(OCCCCCOc2ccc3ccc(OCC(=O)OCC)cc3c2CCC(=O)OCC)ccc2c1OCCC2=O
4,158 to 160 °C,O=C(On1nnc2ccccc21)c1ccc2c(c1)OC(c1ccccc1)(c1ccccc1)O2
5,133 to 139 °C,CC(Oc1ccc2nc(NC(=O)NCCN3CCC(Cc4ccccc4)CC3)sc2c1)c1c(Cl)ccc(F)c1Cl (configuration not stated)
6,137 to 139 °C,CCOC(=O)C1[C@@H]2[C@@H](O)[C@@H]3O[C@H](c4ccccc4)OC[C@H]3O[C@H]12 (some centres not stated)
7,103 to 104 °C,COC(=O)c1ccc(Cc2cccc3ccc(C=O)cc23)c(OC)c1
8,147 to 149 °C,CC(=O)NC[C@H]1CN(c2ccc(C3CCN(C(=O)COCc4ccccc4)CC3)c(F)c2)C(=O)O1
9,125 to 128 °C,CC(=O)NC[C@H]1CN(c2ccc(N3CCC(=C(C#N)C(=O)N4CCCC4)CC3)c(F)c2)C(=O)O1
10,224 to 228 °C,COC1=CC(=O)c2c(cc(Br)c(O)c2Br)C1=O
11,131 to 132 °C,CCCCc1c(CNC(=O)OC(C)(C)C)c(CC(C)C)nc2ccc(OCc3ccccc3)cc12
12,> 300 °C,Cc1cc(NC(=O)c2cccnc2Cl)[nH]n1
13,139 to 142 °C,Cn1c(-c2cccc(C(F)(F)F)c2)cc(=O)n(-c2ccc(Cl)cc2F)c1=O
14,79 to 81 °C,CCCC(CO)N1CC(COc2cccc(Cl)c2)OC1=O (configuration not stated)
15,155 to 156 °C,CN1C(=O)C2CC(c3ccc(Cl)cc3)(C2)C1=O
16,98 to 100 °C,CCCCCCNC(=O)OCCCCCCCCCCCCNC(=O)OC1CCN(C(=O)O)CC1
17,73 to 75.5 °C,CCc1nnc(-c2ccc(OC)cc2)c(-c2ccc(OC)cc2)n1
18,96 to 97 °C,CCOC(=O)CC(C)(O)c1ccc(-c2ccc(F)cc2F)cc1 (configuration not stated)
19,129 to 131 °C,Oc1cccc(C2CCCN2Cc2cccnc2)c1 (configuration not stated)
20,135 to 136 °C,Cc1nc(N2C[C@@H](C)N(Cc3ccc(F)cc3)C2=O)sc1C(=O)NCc1cccnc1
21,107 to 108 °C,CC(C)OCCNc1ccccc1C(=O)C(=O)OC(=O)C(=O)c1ccccc1NCCOC(C)C
22,82 to 84 °C,O=C(Cc1ccc(Cl)cc1)C1(c2ccc(Cl)c(Cl)c2)CCC1
23,262 to 263 °C,COc1ccc(C(=O)Nc2cccc(C(=O)O)c2)c2cc(C(=O)c3ccccc3)oc12
24,108 to 110 °C,COc1ccc(C2CC(OC(C)=O)CCC2[N+](=O)[O-])cc1OC (configuration not stated)

row,melting point,Compound
1,90 to 92 °C,CC(C)c1cn2ccccc2c1S(=O)(=O)c1ccc(OCCCN(C)C)cc1
2,121 to 123 °C,CCOC(=O)c1cc(=O)c(-c2ccc(OC)cc2)co1
3,156 °C,COc1ccc(-n2nc(C(C)(C)C)cc2NC(=O)c2nccc3cc(Oc4cc(Cl)ncn4)ccc23)cc1
4,170 to 172 °C,CC(C)(C)C1NN(c2ccc(N)cc2Br)C(=O)O1 (configuration not stated)
5,126 to 130 °C,COc1cc(C)c(C(O)C#CC(F)(F)F)c(C)c1C (configuration not stated)
6,110 to 113 °C,COc1ccc(C(=O)c2cccc([N+](=O)[O-])c2C)cc1
7,82 to 95 °C,COc1cc(C2CCN(CC(O)CF)CC2)ccc1Nc1ncc2ccc(-c3ccccc3N(C)S(C)(=O)=O)n2n1 (configuration not stated)
8,238 to 241 °C,O=c1cc[nH]c2c([N+](=O)[O-])cc(Cl)cc12
9,89 to 90 °C,CCOc1ccc(C[N+](=O)[O-])c(C=CC[N+](=O)[O-])c1OCc1ccccc1
10,258 to 259 °C,CC(=O)Nc1cc2c(c(C(=O)O)c1)NCCC2
11,259 to 261 °C,CCCn1c(=O)c2[nH]c(/C=C/c3ccccc3)nc2n(CCC)c1=O
12,105 to 107 °C,O=S(=O)(c1ccc(Cl)cc1)C(Cc1ccccn1)c1cc(F)ccc1F (configuration not stated)
13,59 to 60 °C,COc1cc(Br)c(OC)c(CO)c1
14,215 °C,Cc1ccc(-c2ccc(S(C)(=O)=O)c(F)c2)n1-c1ccc(-c2cscn2)cc1
15,309 to 311 °C,CC(C)(C)c1ccc(-c2nc(NC(=O)C3CCCC3)sc2-c2ccncc2)cc1
16,190 to 192 °C,CCCCNc1ncnc2c1ncn2CCCN1CCC(NC(=O)c2ccccc2)CC1
17,254 to 255 °C,CC1Cc2cc3c(cc2C(c2ccc([N+](=O)[O-])cc2)=NN1c1ccc(Cl)nn1)OCO3 (configuration not stated)
18,66.5 to 67.5 °C,COC(=O)C(F)(F)C1(C(F)(F)C(=O)OC)OCCO1
19,> 330 °C,O=c1[nH]c(C(F)(F)F)nc2ccc(S(=O)(=O)O)cc12
20,228 °C,COc1ccc(-n2nc(C(F)(F)F)nc2-c2ccc(S(N)(=O)=O)cc2)cc1
21,193 to 196 °C,NC(=O)CCN1CCC(CNc2ccc(Cl)cc2C(=O)Nc2ccc(Cl)cn2)CC1
22,202 to 204 °C,COC(=O)c1ccc(NS(=O)(=O)c2sc3ccc(F)cc3c2C)c(S(C)(=O)=O)c1
23,45 to 48 °C,C[Si](C)(C)CCCOc1cc(Cl)c([N+](=O)[O-])cc1Cl
24,157 to 161 °C,CCCc1nc(CC)c(C(=O)O)n1Cc1ccc(C2(C(=O)O)CC=CC2)s1

row,melting point,Compound
1,58 to 59 °C,CNc1cccc(OC)c1[N+](=O)[O-]
2,185 to 190 °C,CN1C(=O)CC[C@]2(C)c3ccc(-c4ccc5ncccc5c4)cc3CC[C@@H]12
3,94 to 95 °C,O=C1CCCCC1C(=S)Nc1ccc(Br)cc1F (configuration not stated)
4,211 to 212 °C,Nc1c2c(nc3ccccc13)-c1ccccc1SC2
5,129 to 130 °C,CCOc1ccc(F)c(N2Cc3cnc(NCCCCN(CC)CC)nc3N(C3CCCC3)C2=O)c1F
6,149 to 152 °C,CCOC(=O)c1cccc(NC(=O)c2sc(NC(=N)N)nc2C)c1
7,135 to 138 °C,COc1ccc(N(CCN2CCC(C(=O)c3ccc(F)cc3)CC2)C(=O)c2ccc(N)cc2)c(OC)c1
8,180 to 181 °C,CCc1cn(C2OC(CO)C(O)C2O)c(=O)[nH]c1=O (configuration not stated)
9,183 to 185 °C,N#Cc1cc2cc(C(O)(C(F)(F)F)C(F)(F)F)ccc2[nH]1
10,279 to 281 °C,CC1(C)CCOc2cc(C(=O)Nc3ccc(C(=O)O)cc3)ccc21
11,266 to 268 °C,Cn1cc(C(N)=O)c(=O)c2sc(-c3ccccc3)cc21
12,120 to 122 °C,C[C@@]1(C(=O)O)CSC(Cc2cc(F)cc(F)c2)=N1
13,141 to 143 °C,CCOC(=O)c1cn(-c2nccs2)c2nc(Cl)cc(NCc3ccccc3)c2c1=O
14,280 °C,CCCCCCCCCCc1c(C(=O)O)sc2c1sc1c(CCCCCCCCCC)c(C(=O)O)sc12
15,207 to 210 °C,CCOC(=O)c1cn(-c2ccc(F)c(NC(C)(C)C)n2)c2c(Cl)c(F)c(F)cc2c1=O
16,236 to 238 °C,CC1CNC(c2n[nH]c(-c3ccc(Cl)cc3)c2-c2ccncc2)C(C)N1 (configuration not stated)
17,95 to 99 °C,O=S(=O)(c1ccccc1)c1ccc(Br)cc1
18,232 to 234 °C,CCOC(=O)c1ncn2c(-c3cccc(C(F)(F)F)c3)ccnc12
19,95 °C,COC[C@H](C)Oc1cc(O)cc(C(=O)O)c1
20,84 °C,CCOC(=O)N1Cc2ccccc2C(Oc2ccc(C(F)(F)F)cc2)C1 (configuration not stated)
21,194 to 195 °C,CCc1ccc(Nc2nc3cc(NC(=O)c4cccc(CCl)c4)ccc3o2)cc1
22,104 °C,CCOC(=O)Oc1ccc(S(=O)(=O)N2c3c(C)cccc3-n3cccc3C2CC)cc1 (configuration not stated)
23,134 to 135 °C,CCc1cc2c(cc1O)CCC1C2CCC2(C)C(CCO[Si](c3ccccc3)(c3ccccc3)C(C)(C)C)CCC12 (configuration not stated)
24,45.5 to 47.5 °C,Cc1ccccc1-c1cc(=O)c2ccccc2o1

row,melting point,Compound
1,115 to 118 °C,COc1ccccc1Oc1ccc(Cl)cc1C(=O)O
2,209 to 211 °C,O=C(NC1CCN(CCCOc2ccc3c4c(c(=O)oc3c2)CCCC4)CC1)c1ccccc1O
3,110 to 112 °C,O=C(c1ccc(F)cc1Cl)N1Cc2cccn2Cc2ccccc21
4,274 to 277 °C,Oc1ccc2c(c1)nnc1ccccc12
5,97 to 98 °C,COc1c(C)cc(C)cc1C(=O)O
6,202 to 204 °C,COc1nc(C)c(C)nc1NC(=O)N1CCN(c2c(C)c(C)cc(C)c2C)CC1
7,241 to 242 °C,O=C1c2ccccc2S(=O)(=O)c2cc(C3=NCCN3)ccc21
8,105 to 107 °C,CCCC(=O)NC[C@@H]1CN(c2nc3c(cc2F)c(=O)c(C(=O)OCC)cn3C2CC2)C[C@H]1F (relative stereo)
9,81 to 82 °C,CCC(COC)NC(=O)C(C)(C)c1ccc(-c2ccccc2)c(F)c1 (configuration not stated)
10,62 °C,CCCCN(CCCC)C(=O)c1cc2ccccc2c(-c2ccccc2)n1
11,80 to 82 °C,CCC#CCOc1cc2c(cc1/C=C/c1ccc(C(=O)OCC)cc1)C(C)(C)CCC2(C)C
12,200 to 201 °C,Cc1cc(-c2ccccc2)nc(SSc2nc(-c3ccccc3)cc(C)c2C#N)c1C#N
13,257 to 259 °C,CC1=NN(c2cc(Cl)c(C(=O)c3ccc(Cl)cc3)c(Cl)c2)C(=O)NC1
14,189 to 190 °C,N=C1NC(=O)C(Cc2ccc(OCCN3CCOCC3)cc2)S1 (configuration not stated)
15,107 to 109 °C,Fc1ccc(CNc2nc(OCC(F)(F)F)nc(Oc3cccc(C(F)(F)F)c3)n2)cc1
16,166 °C,COc1cc(C=CC(=O)c2ccc([N+](=O)[O-])cc2)cc(OC)c1
17,129 to 132 °C,CCCCCCCCC1N=C(N)NC(Nc2cc(C(C)(C)C)ccc2OC)=N1 (configuration not stated)
18,128 to 130 °C,CN1CCN(Cc2cc(-c3ccc4c(c3)CCO4)nn(CC3CC3)c2=O)CC1
19,154 to 155 °C,COc1ccc(S(=O)(=O)Nc2cccc3c2Nc2ccccc2CO3)cc1
20,178 to 179 °C,CCCCCC(=O)NCc1ccc(C(=O)O)cc1
21,97 to 100 °C,CO[C@@H]1CC[C@@H](NC(C)=O)c2ccccc21 (relative stereo)
22,78.1 to 80 °C,CCN(CC)c1ccc(/C=C/c2cc(/C=C/c3ccc4cc[nH]c4c3)[nH]n2)c(OCc2ccccc2)c1
23,232 to 233 °C,O=C(O)[C@@H]1CCN2C(=O)CC[C@H](N3C(=O)c4ccccc4C3=O)C(=O)N12

row,Compound,melting point
1,BrCc1noc2ccccc12,60 to 62 °C
2,O=C1c2c(O)cccc2C(SCC(O)CO)c2cccc(O)c21 (configuration not stated),154 to 155 °C
